{"source": "patent US6746668B2", "about": "“Apo-2 ligand” (Genentech, Inc., priority 1996, dated 2004)", "key": {"[1]": {"tested_on": "peripheral blood B lymphocytes", "assay": "Apoptosis by FACS, peripheral blood B cells", "type": "cell-based, human", "details": "for % apoptotic cells: 3 days, Apo-2L 3 μg/ml, mean ±SE", "experimental": "Peripheral blood mononuclear cells (“PBMC”) were isolated from the blood of human donors by Ficoll density gradient centrifugation using Lymphocyte Separation Medium (LSM®, Organon Teknika). An isolated population of T cells was prepared from the PBMC by removal of B cells through surface Ig binding to an anti-Ig column and removal of monocytes through Fc receptor binding to an Ig column (R & D Systems). An isolated population of B cells was prepared from the PBMC by complement-mediated elimination of T cells reacted with the anti-CD3 antibody produced by the OKT3 myeloma (ATCC, CRL 8001) and of monocytes reacted with a monocyte-specific antibody produced by the 4F2C13 hybridoma (ATCC, HB 22). Additional monocyte removal was accomplished by adherence to plastic.\nThe freshly isolated peripheral blood B or T cells (1×10^6 cells/well) were cultured for 3 days in the presence of a media control or Apo-2 ligand (3 μg/ml, prepared as described in Example 3). For activation, B cells were treated simultaneously with lipopolysaccharide ([…], 1 μg/ml), and T cells were treated with phorbol myristate acetate (“PMA”, 10 ng/ml) plus ionomycin (1 μg/ml) (Sigma). For interleukin-2 (“IL-2”) pretreatment, T cells were cultured for 3-5 days in the presence of IL-2 (50 U/ml) (Genzyme) before exposure to Apo-2 ligand. Apoptosis was determined using FACS analysis essentially as described above in Example 4. However, B cells were gated by anti-CD19/CD20 antibodies (Jackson Immunoresearch), and T cells were gated by anti-CD4/CD8 antibodies (Jackson Immunoresearch). The results are shown in Table 2 below, representing means ±SE of independent experiments [B lymphocytes—9 experiments; T lymphocytes—8 experiments; T lymphocytes plus IL-2-5 experiments], in which 50,000 cells were analyzed per data point. Statistical analysis was performed using the student t-test. In Table 2, a=p<0.05 and b=p<0.02 relative to the respective control."}, "Jurkat cells": {"tested_on": "Jurkat cells", "assay": "Internucleosomal DNA fragmentation, Jurkat cells", "type": "cell-based, human", "details": "6 hours, Apo-2 ligand 3 μg/ml", "experimental": "(§1) The activation of internucleosomal DNA fragmentation by Apo-2 ligand was also analyzed. Jurkat cells (left lanes) and 9D cells (right lanes) were incubated (2×10^6 cells/well) for 6 hours with a media control or Apo-2 ligand (3 μg/ml, prepared as described in Example 3), The DNA was then extracted from the cells and labeled with ^32P-ddATP using terminal transferase. The labeled DNA samples were subjected to electrophoresis on 2% agarose gels and later analyzed by autoradiography [Moore et al., Cytotechnology, 17:1-11 (1995)]. […] Such DNA fragmentation is characteristic of apoptosis [Cohen, Advances in Immunol., 50:55-85 (1991)]."}, "[2]": {"tested_on": "peripheral blood T lymphocytes", "assay": "Apoptosis by FACS, peripheral blood T cells", "type": "cell-based, human", "details": "for % apoptotic cells: Apo-2L 3 μg/ml, mean ±SE"}, "[3]": {"tested_on": "Jurkat cells (human acute T cell leukemia cell line)", "assay": "Apoptosis by FACS (PI / FITC-annexin V), Jurkat cells", "type": "cell-based", "details": "24 hours, CH11 1 μg/ml", "experimental": "(§2) The effects of the Apo-2 ligand on the 9D cells, as well as on Raji cells (human Burkitt's lymphoma B cell line, ATCC CCL 86) and Jurkat cells (human acute T cell leukemia cell line, ATCC TIB 152) were further analyzed by FACS. The FACS analysis was conducted, using established criteria for apoptotic cell death, namely, the relation of fluorescence staining of the cells with two markers: (a) propidium iodide (“PI”) dye, which stains apoptotic but not live cells, and (b) a fluorescent derivative of the protein, annexin V, which binds to the exposed phosphatidylserine found on the surface of apoptotic cells, but not on live cells [Darzynkiewicz et al., Methods in Cell Biol., 41:15-38 (1994); Fadok et al., J. Immunol., 148:2207-2214 (1992); Koopman et al., Blood, 84:1415-1420 (1994)].\n(§3) The 9D cells (FIG. 2B), Raji cells (FIG. 2C), and Jurkat cells (FIG. 2D) were incubated (1×10^6 cells/well) for 24 hours with a media control (left panels), Apo-2 ligand (3 μg/ml, prepared as described in Example 3) (center panels), or […], CH11 (1 μg/ml) (right panels). The cells were then washed, stained with PI and with […] (FITC)-conjugated annexin V (purchased from Brand Applications) and analyzed by flow cytometry. […]"}, "[4]": {"tested_on": "293 (adenovirus-transformed human embryonic kidney cells)", "assay": "Apoptosis by FACS, 293 cells", "type": "cell-based", "experimental": "as §3, with “cytometry. Cells negative for both PI and annexin V staining (quadrant 3) represent live cells; PI-negative, annexin V-positive staining cells (quadrant 4) represent early apoptotic cells; PI-positive, annexin V-positive staining cells (quadrant 2) represent primarily cells in late stages of apoptosis.” for “cytometry.”\n(§4) In the assay, 1×10^6 cells of each cell line were incubated for 24 hours with a media control, Apo-2 ligand (3 μg/ml, prepared as described in Example 3), or anti-Apo-1 monoclonal antibody, CH11 (1 μg/ml). Following the incubation, apoptosis was measured by FACS analysis, as described in Example 4."}, "[5]": {"tested_on": "ME-180 (human cervical carcinoma)", "assay": "Apoptosis by FACS, ME-180 cells", "type": "cell-based", "experimental": "as §3, with “cytometry. Cells negative for both PI and annexin V staining (quadrant 3) represent live cells; PI-negative, annexin V-positive staining cells (quadrant 4) represent early apoptotic cells; PI-positive, annexin V-positive staining cells (quadrant 2) represent primarily cells in late stages of apoptosis.” for “cytometry.”\nas §4"}, "9D cells [6]": {"tested_on": "9D cells", "assay": "Internucleosomal DNA fragmentation, 9D cells", "type": "cell-based, human", "details": "6 hours, Apo-2 ligand 3 μg/ml", "experimental": "as §1"}, "[7]": {"tested_on": "HeLa (human cervical carcinoma)", "assay": "Apoptosis by FACS, HeLa cells", "type": "cell-based", "experimental": "as §3, with “cytometry. Cells negative for both PI and annexin V staining (quadrant 3) represent live cells; PI-negative, annexin V-positive staining cells (quadrant 4) represent early apoptotic cells; PI-positive, annexin V-positive staining cells (quadrant 2) represent primarily cells in late stages of apoptosis.” for “cytometry.”\nas §4"}, "[8]": {"tested_on": "A549 (human lung carcinoma)", "assay": "Apoptosis by FACS, A549 cells", "type": "cell-based", "experimental": "as §3, with “cytometry. Cells negative for both PI and annexin V staining (quadrant 3) represent live cells; PI-negative, annexin V-positive staining cells (quadrant 4) represent early apoptotic cells; PI-positive, annexin V-positive staining cells (quadrant 2) represent primarily cells in late stages of apoptosis.” for “cytometry.”\nas §4"}, "[9]": {"tested_on": "9D cells (EBV-transformed human peripheral blood B cells)", "assay": "Apoptosis by FACS (PI / FITC-annexin V), 9D cells", "type": "cell-based", "details": "24 hours, CH11 1 μg/ml", "experimental": "as §2, §3"}, "9D cells [10]": {"tested_on": "9D cells", "assay": "Time course and dose-dependence of cell death (dead/live counts, hemocytometer), 9D cells", "type": "cell-based, human", "experimental": "To examine the time-course of the Apo-2 ligand apoptotic activity, 9D cells were incubated in microtiter dishes (5×10^4 cells/well) with a media control or Apo-2 ligand (3 μg/ml, prepared as described in Example 3) for a period of time ranging from 0 hours to 50 hours. Following the incubation, the numbers of dead and live cells were determined by microscopic examination using a hemocytometer.\nTo determine dose-dependency of Apo-2 ligand-induced cell death, 9D cells were incubated (5×10^4 cells/well) for 24 hours with serial dilutions of a media control or Apo-2 ligand (prepared as described in Example 3). The numbers of dead and live cells following the incubation were determined as described above. The results are illustrated in FIG. 3B. Specific apoptosis was determined by subtracting the % apoptosis in the control from % apoptosis in Apo-2 ligand treated cells. Half-maximal activation of apoptosis occurred at approximately 0.1 μg/ml (approximately 1 nM), and maximal induction occurred at about 1 to about 3 μg/ml (approximately 10 to 30 nM)."}, "[11]": {"tested_on": "U-937 (human hystiocytic lymphoma)", "assay": "Apoptosis by FACS, U-937 cells", "type": "cell-based", "experimental": "as §3, with “cytometry. Cells negative for both PI and annexin V staining (quadrant 3) represent live cells; PI-negative, annexin V-positive staining cells (quadrant 4) represent early apoptotic cells; PI-positive, annexin V-positive staining cells (quadrant 2) represent primarily cells in late stages of apoptosis.” for “cytometry.”\nas §4"}, "[12]": {"tested_on": "Raji cells (human Burkitt's lymphoma B cell line)", "assay": "Apoptosis by FACS (PI / FITC-annexin V), Raji cells", "type": "cell-based", "details": "24 hours, CH11 1 μg/ml", "experimental": "as §2, §3"}, "[13]": {"tested_on": "MCF7 (human breast carcinoma)", "assay": "Apoptosis by FACS, MCF7 cells", "type": "cell-based", "experimental": "as §3, with “cytometry. Cells negative for both PI and annexin V staining (quadrant 3) represent live cells; PI-negative, annexin V-positive staining cells (quadrant 4) represent early apoptotic cells; PI-positive, annexin V-positive staining cells (quadrant 2) represent primarily cells in late stages of apoptosis.” for “cytometry.”\nas §4"}, "[14]": {"details": "Apo-2 ligand as compared to CH11 anti-Apo-1 antibody"}}, "data": [{"substance": "Apo-2L: purified, soluble recombinant human Apo-2 ligand: His10-tagged residues 114-281 of SEQ ID NO:1, expressed in baculovirus-infected Sf9 cells (Example 3)", "values": [{"measurement": "induction of apoptosis, in words", "setting": "[1]; B cells activated by LPS", "result": "induced significant apoptosis"}, {"measurement": "% apoptotic cells", "setting": "[1]; B lymphocytes + LPS 1 μg/ml, control 44.8 ± 2.8", "result": 55.9, "unit": "%"}, {"measurement": "% apoptotic cells", "setting": "[1]; B lymphocytes, no treatment, 9 experiments, control 40.1 ± 4.1", "result": 53.2, "unit": "%"}, {"measurement": "induction of apoptosis, in words", "setting": "[1]; unstimulated B cells", "result": "induced significant apoptosis"}, {"measurement": "internucleosomal DNA fragmentation", "setting": "Jurkat cells", "result": "induced internucleosomal DNA fragmentation"}, {"measurement": "induction of apoptosis, in words", "setting": "[2]; T cells activated with PMA and ionomycin", "result": "induced significant apoptosis"}, {"measurement": "% apoptotic cells", "setting": "[2]; T lymphocytes + PMA 10 ng/ml / ionomycin 1 μg/ml, 3 days, control 40.3 ± 4.4", "result": 54.2, "unit": "%"}, {"measurement": "% apoptotic cells", "setting": "[2]; T lymphocytes, IL-2 (50 U/ml, 3-5 days) pretreatment, 5 experiments, control 13.7 ± 1.2", "result": 34.5, "unit": "%"}, {"measurement": "% apoptotic cells", "setting": "[2]; T lymphocytes, no treatment, 3 days, 8 experiments, control 6.3 ± 0.6", "result": "8.2 ± 0.8", "unit": "%"}, {"measurement": "sensitization to Apo-2 ligand-induced death, in words", "setting": "[2]; peripheral T cells pretreated with IL-2", "result": "did sensitize"}, {"measurement": "% apoptotic cells", "setting": "[3]; Apo-2L 3 μg/ml, control 5.9", "result": 77.0, "unit": "%"}, {"measurement": "induction of apoptosis (annexin V binding, PI uptake), in words", "setting": "[3]; Apo-2 ligand 3 μg/ml", "result": "induced a similar response"}, {"measurement": "sensitivity to induction of apoptosis", "setting": "[4]", "result": "resistant"}, {"measurement": "% apoptotic cells", "setting": "[4]; 24 hours, Apo-2L 3 μg/ml, CH11 1 μg/ml, control 12.3", "result": 12.2, "unit": "%"}, {"measurement": "sensitivity to induction of apoptosis", "setting": "[5]", "result": "quite sensitive"}, {"measurement": "% apoptotic cells", "setting": "[5]; 24 hours, Apo-2L 3 μg/ml, CH11 1 μg/ml, control 8.6", "result": 80.7, "unit": "%"}, {"measurement": "internucleosomal DNA fragmentation", "setting": "9D cells [6]", "result": "induced internucleosomal DNA fragmentation"}, {"measurement": "% apoptotic cells", "setting": "[7]; 24 hours, Apo-2L 3 μg/ml, CH11 1 μg/ml, control 5.3", "result": 18.6, "unit": "%"}, {"measurement": "sensitivity to induction of apoptosis", "setting": "[7]; [14]", "result": "equally sensitive"}, {"measurement": "% apoptotic cells", "setting": "[8]; 24 hours, Apo-2L 3 μg/ml, CH11 1 μg/ml, control 16.5", "result": 74.6, "unit": "%"}, {"measurement": "sensitivity to induction of apoptosis", "setting": "[8]; [14]", "result": "markedly more sensitive"}, {"measurement": "% apoptotic cells", "setting": "[9]; Apo-2L 3 μg/ml, control 22.5", "result": 92.4, "unit": "%"}, {"measurement": "induction of apoptosis (annexin V binding, PI uptake), in words", "setting": "[9]; Apo-2 ligand 3 μg/ml", "result": "induced apoptosis"}, {"measurement": "half-maximal activation of apoptosis", "setting": "9D cells [10]; 24 hours, specific apoptosis (control subtracted)", "result": "approximately 0.1 μg/ml"}, {"measurement": "EC50", "setting": "9D cells [10]; 24 hours, specific apoptosis (control subtracted), read-out: half-maximal activation of apoptosis", "result": "~1", "unit": "nM"}, {"measurement": "time to maximal levels of cell death", "setting": "9D cells [10]; Apo-2 ligand 3 μg/ml, 0 to 50 hours", "result": "≤ 24", "unit": "h"}, {"measurement": "% apoptotic cells", "setting": "[11]; 24 hours, Apo-2L 3 μg/ml, CH11 1 μg/ml, control 3.6", "result": 62.3, "unit": "%"}, {"measurement": "sensitivity to induction of apoptosis", "setting": "[11]; [14]", "result": "markedly more sensitive"}, {"measurement": "% apoptotic cells", "setting": "[12]; Apo-2L 3 μg/ml, control 35.9", "result": 73.4, "unit": "%"}, {"measurement": "induction of apoptosis (annexin V binding, PI uptake), in words", "setting": "[12]; Apo-2 ligand 3 μg/ml", "result": "induced a similar response"}, {"measurement": "% apoptotic cells", "setting": "[13]; 24 hours, Apo-2L 3 μg/ml, CH11 1 μg/ml, control 39.9", "result": 47.3, "unit": "%"}, {"measurement": "sensitivity to induction of apoptosis", "setting": "[13]; [14]", "result": "equally sensitive"}]}]}
